Experimental findings from ChEMBL document CHEMBL1150694, “Jatrophane diterpenoids from Euphorbia mongolica as modulators of the multidrug resistance of L5128 mouse lymphoma cells” (J Nat Prod, 2003) are described below.

SMILES strings stand for the structures.

Holding throughout (assay type): cell-based
Series [1] addresses T1, ATP-dependent translocase ABCB1 (Homo sapiens, UniProt P08183). The series can be described thus: Inhibition of human MDR1 expressed in mouse L5178 cells assessed as fluorescence activity at 23 uM by rhodamine 123 exclusion test. Particulars: l5178, 23 µM.
In series [2] the target is T1, ATP-dependent translocase ABCB1. The series can be described thus: Inhibition of human MDR1 expressed in mouse L5178 cells assessed as fluorescence activity ratio at 112 uM by rhodamine 123 exclusion test relative to wild type mouse L5178 cells. Particulars: l5178, 112 µM.
The target is the same in series [3]. The series can be described thus: Inhibition of human MDR1 expressed in mouse L5178 cells assessed as fluorescence activity at 11.2 uM by rhodamine 123 exclusion test. Particulars: l5178, 11.2 µM.
For series [4] the target is unchanged. The series can be described thus: Inhibition of human MDR1 expressed in mouse L5178 cells assessed as fluorescence activity ratio at 11.2 uM by rhodamine 123 exclusion test relative to wild type mouse L5178 cells. The note with it: l5178, 11.2 µM.
Series [5] has the same target. The series can be described thus: Inhibition of human MDR1 expressed in mouse L5178 cells assessed as fluorescence activity at 112 uM by rhodamine 123 exclusion test. Particulars: l5178, 112 µM.

T1 sequence (P08183 whole entry): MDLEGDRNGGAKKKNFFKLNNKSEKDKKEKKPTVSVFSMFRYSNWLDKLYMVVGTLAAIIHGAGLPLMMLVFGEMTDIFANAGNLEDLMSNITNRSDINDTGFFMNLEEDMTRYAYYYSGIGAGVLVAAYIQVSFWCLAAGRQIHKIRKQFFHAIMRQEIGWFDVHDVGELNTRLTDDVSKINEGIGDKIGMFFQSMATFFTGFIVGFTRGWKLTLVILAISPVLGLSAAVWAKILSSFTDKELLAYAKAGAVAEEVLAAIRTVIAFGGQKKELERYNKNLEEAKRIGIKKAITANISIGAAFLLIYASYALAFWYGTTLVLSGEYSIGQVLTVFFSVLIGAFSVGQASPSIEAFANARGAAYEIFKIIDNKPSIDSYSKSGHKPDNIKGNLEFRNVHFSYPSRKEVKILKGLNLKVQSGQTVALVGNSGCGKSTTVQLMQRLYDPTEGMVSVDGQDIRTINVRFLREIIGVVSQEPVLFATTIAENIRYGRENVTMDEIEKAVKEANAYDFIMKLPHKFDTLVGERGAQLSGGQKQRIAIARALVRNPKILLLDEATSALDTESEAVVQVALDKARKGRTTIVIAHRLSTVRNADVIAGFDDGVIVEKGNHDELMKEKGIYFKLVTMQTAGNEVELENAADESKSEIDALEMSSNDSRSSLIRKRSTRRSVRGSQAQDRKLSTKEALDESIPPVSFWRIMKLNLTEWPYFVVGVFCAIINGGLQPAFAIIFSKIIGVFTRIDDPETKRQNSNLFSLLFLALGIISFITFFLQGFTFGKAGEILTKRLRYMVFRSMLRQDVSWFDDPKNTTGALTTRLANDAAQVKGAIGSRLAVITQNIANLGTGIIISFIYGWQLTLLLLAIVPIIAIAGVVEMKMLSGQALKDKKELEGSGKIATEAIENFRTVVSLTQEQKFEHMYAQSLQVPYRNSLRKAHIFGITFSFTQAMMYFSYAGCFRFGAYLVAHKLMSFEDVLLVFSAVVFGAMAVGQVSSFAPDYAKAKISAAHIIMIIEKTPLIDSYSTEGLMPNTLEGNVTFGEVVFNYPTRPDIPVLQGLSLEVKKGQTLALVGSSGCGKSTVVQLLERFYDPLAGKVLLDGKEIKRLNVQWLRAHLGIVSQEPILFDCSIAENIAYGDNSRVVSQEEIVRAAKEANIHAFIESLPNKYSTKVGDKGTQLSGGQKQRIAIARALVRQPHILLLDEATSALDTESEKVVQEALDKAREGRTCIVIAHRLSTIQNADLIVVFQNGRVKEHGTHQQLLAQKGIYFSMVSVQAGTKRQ

For `COc1ccc(CCN(C)CCCC(C#N)(c2ccc(OC)c(OC)c2)C(C)C)cc1OC` (stereo not drawn), in series [1], the Flu intensity was determined as 158.9.
As for `C=C1[C@H](OC(C)=O)[C@H]2[C@@H](OC(=O)c3ccccc3)[C@@H](C)C[C@]2(O)C(=O)[C@@H](C)/C=C/C(C)(C)C(=O)[C@H](OC(C)=O)[C@H]1OC(C)=O` (relative stereo), the Ratio in series [2] is recorded as 22.92; in series [4] it was 12.29. Besides, the figures for the Flu intensity in series [3] and in series [5] were 148.64 and 277.08, respectively.
`C=C1[C@H](OC(C)=O)[C@@H](OC(C)=O)[C@@H](OC(C)=O)C(C)(C)/C=C/[C@H](C)C(=O)[C@@]2(OC(C)=O)C[C@H](C)[C@H](OC(=O)c3ccccc3)[C@@H]2[C@H]1OC(C)=O` (relative stereo): the Ratio amounted to 18.02 in series [2] and 2.6 in series [4]. Besides, the Flu intensity in series [3] worked out at 31.46; in series [5], 217.81.
`C=C1[C@H](OC(C)=O)[C@@H](OC(C)=O)[C@@H](OC(C)=O)C(C)(C)/C=C/[C@H](C)C(=O)[C@@]2(OC(C)=O)C[C@H](C)[C@H](OC(C)=O)[C@@H]2[C@H]1OC(=O)c1ccccc1` (relative stereo): the Ratio in series [2] came to 29.29; in series [4], 2.79. Besides, the Flu intensity is recorded as 33.71 in series [3] and 354.21 in series [5].
